The text below walks through data of patent US12590126B2, “Compounds for selective disruption of protein-protein interactions” (SyntheX, Inc., priority 2017, dated 2026).

“Also recorded” adds a separate entry of the source. Read-outs that look alike come from different tables or passages of the source. Where a SMILES comes first, the peptide text is derived from it. [ ]: non-standard residue; d: D form. 2Nal = N[C@@H](Cc1ccc2ccccc2c1)C(=O)O; dNle = CCCC[C@@H](N)C(=O)O; βAla = NCCC(=O)O Bounds are passed on as bounds.

The subject of one series is SSP-25 cells. The series can be described thus: xCELLigence cell death assay in SSP-25 cells (cellular assay for RAD51 inhibition). It is filed as cell-based. Conditions: concentration gradient added at 20 hour mark, only values with R^>0.85 shown.
The subject of another series is fresh human RBCs. It is filed as cell-based. Put shortly: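 Washed RBCs from O+ donors (K2EDTA), diluted to 2% in PBS, incubated with compounds at various concentrations for 1 hr at 37 C. Supernatant absorbance read at 450 or 405 nm after centrifugation; % hemolysis relative to 1% Triton X-100.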
Series [1] can be described thus: Mouse pharmacokinetics, IV and IP dosing. It is filed as in vivo, mice. As for the experimental part:
The pharmocokinetic parameters in mice by both intravenous (IV) and intraperitoneal (IP) dosing, as well as the serum and microsome stability for each of compound 22, 23, 24, and 25 was determined. Bioanalytical methods were developed for each compound using an LC-MS/MS method with LLOQ>100 ng/ml.
For in-vivo PK work, at least 3 mice were used per timepoint. For each compound, the animals were injected either IV or IP with the compound. IV injections used 1 mg/kg, and IP injections were at 15 mg/kg. Blood was collected at the indicated timepoints and analyzed according to the bioanalytical method developed.

For series [2], the system named is A549 xenograft. The series can be described thus: A549 xenograft in athymic nude mice, compound 22. It is filed as in vivo. Conditions: 15 mpk IP every other day. The protocol:
The anti-cancer activity of compound 22 was assessed in an A549 xenograft model in a method similar to Example 4. Briefly, A549 cells were implanted into athymic nude female mice. Tumors were allowed to grow to 100 mm^3 before initiation of dosing. Mice were randomly distributed into dosing groups with at least 3 animals per group. Mice were dosed using 15 mpk TP injections every other day.
Tumor volumes and mouse weights were recorded at the indicated timepoints. Terminal tumors were excised and weighed (N=3 for each group).

Series [3] can be described thus: in vitro. Conditions: mouse, serum.
Experimental: Serum stability data was obtained using the appropriate animal serum, each incubated with the compound for up to two hours at 37 C.
The nature of series [4]: in vitro. Conditions: human, microsomes.
Experimental: (§1) For HLM and MLM stability studies, each compound was incubated with the liver microsome mixture for up to an hour at 37 C in the presence of NADPH.
(§2) After the incubations, the reactions were stopped and the compounds were analyzed according to the method developed for each.
The nature of series [5]: in vitro. As to conditions: mouse, microsomes.
Experimental: as §1, §2
The subject of series [6] is A549 cells. The series can be described thus: A549 cell growth/death, xCELLigence and microscopy. It is filed as cell-based. As to conditions: xCELLigence, concentration gradient. The protocol: To assess the growth inhibitory properties of compounds disclosed herein, 10 μM of Compound 1 was tested against a PBS mock treatment for growth of A549 cells using microscopy at the indicated timepoints shown in the top right corner of each panel of FIG. 2. […] First, 5,000 A549 cells were plated, and adherence and growth was measured for 20 hours using live measurements of current impedance through the plate using the xCELLigence™ instrument. At the […] mark, a concentration gradient of Compound 1 or a PBS control was added to the A549 cells, which were cultured in 100 μL DMEM media with 10% FBS.

The subject of series [7] is SSP25 cells. In words: Selective killing, Cytation imaging of SSP25 cells. It is filed as cell-based. As to conditions: 10 μM. As for the experimental part:
To assess the specificity of compounds disclosed herein in targeting cancers with overexpression of RAD51, Compound 1 was tested against primary fibroblasts and SSP25 cells (cholangiocarcinoma cell line) (FIG. 5). First, 5,000 cells were incubated in 96-well culture plates overnight. Cells were grown in DMEM or RPMI, respectively, with 10% FBS, and […] was added to a concentration of 10 μM and imaging commenced using a Cytation™ instrument using approximately 5 minute time points. DAPI was used to visualize the nuclei and mitotracker-red was used to observe mitochondria. […] Furthermore, cell morphology was affected within 5 minutes of imaging, and the macrobubble phenotype was stable for further periods of time.

For series [8], the system named is SSP25 cells. The series can be described thus: xCELLigence cell death assay with intracellular calcium chelators. It is filed as cell-based. Conditions: relative to compound alone. As for the experimental part:
To investigate the hypothesis that peptide treatment of cells causes cell death via increases in intracellular free calcium levels, Compound 1 alone and in combination with two different intracellular calcium chelators (1,2-Bis(2-aminophenoxy)ethane-N,N,N′,N′-tetraacetic acid tetrakis(acetoxymethyl ester) aka “BAPTA-AM”, and ammoniated ruthenium oxychloride aka “ruthenium red”) was tested in an xCELLigence™ cell death assay as in Example 1. The intracellular calcium chelators alone were also evaluated on the cells.
In general terms: Calcium flux is commonly read through the fluorescence of an indicator in the cells.

For series [9], the system named is A549 cells. The series can be described thus: Intracellular calcium imaging with Fluo-2-AM. As to conditions: 30 μM compound, pre-incubation with 2.5 μM Fluo-2-AM. It is filed as cell-based. The source says:
Timestamps for the duration of the experiment are indicated in each panel.

The subject of series [10] is A549 xenograft. The series can be described thus: A549 xenograft in athymic nu/nu mice, Compound 1 IT and IP. It is filed as in vivo. Conditions: for tumor volume / size, intra-tumoral dosing: 50 microliters of 10 or 20 mg/ml IT, day 0, day 3 and every other day. The protocol:
Female athymic nu/nu mice (6-8 weeks old) were purchased from Simonsen labs (n=12) and were housed at the Murigenics vivarium in Vallejo. The mice were acclimated to the setting of the vivarium for 5 days and maintained on a standard chow diet; 12:12 dark/light cycle; and group housed (3 mice per cage) in HEPA-filtered cages. After acclimation, each mouse was injected subcutaneously (lower left abdominal flank) with 5×10^6 A549 (ATCC: CCL-185) cells mixed with 1:1 (v/v) with Matrigel solution. When the tumors reached a volume of—100 mm3, the mice were divided into separate treatment groups for the desired treatments. Experiments using both intra-tumoral (IT) and intraperitoneal (IP) administration were performed and the data are reported in FIGS. 10 and 11.
Mice prepared as described above were divided into 4 groups: • Group 1: received an intra-tumoral injection of 50 microliters of Phosphate Buffered Saline (mock) (n=3) • Group 2: received an intra-tumoral injection of 50 microliters of 10 mg/ml Compound 1 in Phosphate Buffered Saline (n=3) • Group 3: received an intra-tumoral injection of 50 microliters of 20 mg/ml Compound 1 in Phosphate Buffered Saline (n=3)
The 50 microliter injections were carried out with a (30 g needle). The injections were administered on day zero and then again on day 3, and every other day. The length (L) and the width (W) of the tumor mass was measured with a Vernier caliper and the tumor volume (V) was calculated as V=(L×WA2)/2. The relative tumor volume of each tumor mass on each measurement day was normalized against the initial volume of the same mass on day zero right before initiation of injections. […]
The injections were carried out with a 30 g needle. […] The length (L) and the width (W) of the tumor mass was measured with a Vernier caliper and the tumor volume (V) was calculated as V=(L×WA2)/2. […]

Series [11] relates to SSP25 cells. In words: xCELLigence cell death assay with necroptosis or apoptosis inhibitor. It is filed as cell-based. Conditions: for cell death with added necroptosis inhibitor Necrostatin: 40 μM compound + 50 μM Necrostatin; for cell death with added apoptosis inhibitor z-VAD: 40 μM compound + 100 μM z-VAD. As for the experimental part:
Further experiments were performed to elucidate the method of cell death induced by Compound 1. In one experiment, xCELLIGENCE cell death assays as in Examples 1 and 5 were performed, treating with either a necroptosis inhibitor (Necrostatin, 50 μM) alone or in combination with Compound 1 (40 μM). In another experiment, xCELLIGENCE cell death assays as in Examples 1 and 5 were performed, treating with either a apoptosis inhibitor (z-VAD, 100 μM) alone or in combination with Compound 1 (40 μM).

In the series on SSP-25 cells, `CCCC[C@@H](NC(=O)[C@@H](CC(C)C)NC(C)=O)C(=O)N[C@H](CCCNC(=N)N)C(=O)NCCC(=O)N[C@@H](C(=O)N[C@H](CCCNC(=N)N)C(=O)N[C@H](CC(C)C)C(=O)N[C@H](CCCNC(=N)N)C(=O)N[C@@H](C(=O)NCCC(=O)N[C@H](CC(C)C)C(=O)N[C@H](CCCNC(=N)N)C(=O)N[C@H](CCCCN)C(=O)N[C@H](CCCNC(=N)N)C(=O)N[C@H](CCCNC(=N)N)C(=O)N[C@H](CCCNC(=N)N)C(=O)N[C@H](CCCNC(=N)N)C(=O)N[C@H](CCCNC(=N)N)C(=O)NCC(=O)N[C@@H](Cc1ccc2ccccc2c1)C(N)=O)C(C)C)C(C)C` [Compound 22, Ac-l{d-norLeucine}r[beta-ALA]vrlrv[beta-ALA]lrkrrrrrGΦ-NH2] (Ac-[dL][dNle][dR][βAla][dV][dR][dL][dR][dV][βAla][dL][dR][dK][dR][dR][dR][dR][dR]G[2Nal]-NH2) displayed an IC50 of 18 µM. Further, the “% Hemolysis (250 uM)” value with fresh human RBCs (red cells of human, 1 h, 250) was 5%. The “AUC Extr” value in series [1] (1 mg/kg IV) amounted to 19.8%. Besides, the Vss in series [1] (15 mg/kg IP) is listed as 1.19 L/kg. For the same molecule, the AUC(0-inf) in [1] (in vivo, 1 mg/kg IV) came to 79.3 ng·h/mL; in [1] (in vivo, 15 mg/kg IP) it was 463 ng·h/mL. The same molecule yielded an AUC(0-t) in [1] (in vivo, 1 mg/kg IV) of 63.9 ng·h/mL. The same molecule displayed a C0 in series [1] (in vivo, 1 mg/kg IV) of 514 ng/mL. The MRT inf in series [1] (in vivo, 1 mg/kg IV) turned out to be 0.158 h; in series [1] (in vivo, 15 mg/kg IP), 48.3 h. In addition, in series [1] (in vivo, 1 mg/kg IV), the clearance came out at 222 mL/min/kg. In addition, the half-life in series [1] (in vivo, ip, 15 mg/kg, 15 mg/kg IP, read-out: t½ (converted)) was 36.3 min; in series [1] (in vivo, ip, 15 mg/kg, IP (15 mg/kg), read-out: Half-life Mouse IP), 36.3 min; in series [1] (in vivo, iv, 1 mg/kg, 1 mg/kg IV, read-out: t½ (converted)), 7.14 min; in [1] (in vivo, iv, 1 mg/kg, IV (1 mg/kg), read-out: Half-life Mouse IV), 7.16 min; in “in vitro [3]”, greater than 500 min; in “in vitro [4]”, 365 min. This molecule also came in with a half-life in “in vitro [5]” greater than 500 min. The Vd in series [1] (in vivo, iv, 1 mg/kg, 1 mg/kg IV, read-out: Vss) is 1.87 L/kg; in series [1] (in vivo, iv, 1 mg/kg, 1 mg/kg IV, read-out: Vz), 2.04 L/kg. In addition, in the series on A549 xenograft [2], the tumor growth entry is recorded as “effective to reduce tumor growth”.
For the molecule “Ac-lmrsvrlrvGlrkrrrrrrr-NH2 (Ac-[dL][dM][dR][dS][dV][dR][dL][dR][dV]G[dL][dR][dK][dR][dR][dR][dR][dR][dR][dR]-NH2) [Compound 1]”, the IC50 in the series on SSP-25 cells came to 2.4 µM. Besides, the “% Hemolysis (250 uM)” value in the series with fresh human RBCs was 3%. The “effect on growth / cell death of A549 cells” value in the series with A549 cells [6] was “dose-dependent effect on the growth of A549 cells displaying acute cell death kinetics”. Besides, the “time until cell morphology was affected” value in the series with SSP25 cells [7] was no more than 5 minutes. In the series on SSP25 cells [7] (approx. 5 minute time points), the “cell morphology / cell death in SSP25 cells” value is on record as “drastically affected in SSP25 cells”. In addition, the “cell death with added calcium chelator BAPTA-AM” value in the series on SSP25 cells [8] (10 μM compound + 10 μM BAPTA-AM) is recorded as “rescues cell death relative to compound alone; also recorded: addition of BAPTA-AM rescues cell death”. In the series with SSP25 cells [8] (10 μM compound + 40 μM Ruthenium red), the “cell death with added calcium chelator ruthenium red” value is given as “rescues cell death relative to compound alone; also recorded: addition of ruthenium red rescues cell death”. Besides, the “intracellular calcium (Fluo-2 dye)” value with A549 cells [9] is listed as “accumulation of intracellular calcium”. In addition, the “tumor volume / size, intra-tumoral dosing” value with A549 xenograft [10] is on record as “measurable decreases in tumor size as early as day 3”; in the series with A549 xenograft [10] (listed as compound 1) it was “significant effects on tumor volume after only a few days of treatment”. For the same molecule, in the series with A549 xenograft [10] (125 microliters of 3 mg/ml IP, single dose on day seven), the “tumor size, intra-peritoneal dosing” value is “measurable decreases in tumor size as early as 3 days after injection (day 10)”. Moreover, the “cell death with added necroptosis inhibitor Necrostatin” value with SSP25 cells [11] was “addition of the inhibitor has no effect on the activity”; in the series on SSP25 cells [11] (listed as compound 1), “does not cause cell death through necroptosis or apoptosis”. The “cell death with added apoptosis inhibitor z-VAD” value with SSP25 cells [11] is reported as “addition of the inhibitor has no effect on the activity”; in the series with SSP25 cells [11] (listed as compound 1) it was “does not cause cell death through necroptosis or apoptosis”.

As a reminder, the IC50 is the concentration that gives 50% inhibition. A low value points to inhibition by little substance. Usually AUC(0-inf) stands for the area under the concentration-time curve extrapolated to infinity. A higher AUC(0-inf) goes with high exposure. Broadly, the AUC(0-t) is exposure summed from dosing to a finite time, without extrapolation to infinity. Read a high AUC(0-t) as high exposure. Broadly, the MRT inf is the average time that molecules of a dose stay in the body.
